Laboratory results reported in ChEMBL document CHEMBL5727593, “Use of physiological cooling active ingredients, and agents containing such active ingredients” (2020).

Target: Transient receptor potential cation channel subfamily M member 8 (Homo sapiens, UniProt Q7Z2W7)
Experiment: The agonisation or antagonisation of the receptor can be quantified by means of a Ca2+-sensitive dye (e.g. FURA, Fluo-4, etc.). Agonists on their own bring about an increase in the Ca2+-signal; antagonists in the presence of, for example, menthol bring about a reduction in the Ca2+-signal (in each case detected by means of the Fluo-4 dye, which due to the Ca2+ has other fluorescent properties).To begin with, in a manner known per se, in cell culture flasks a fresh culture of transformed HEK cells is prepared. The HEK293-TRPM8 test cells are removed using trypsin from the cell culture flasks and 40 000 cells/well are sown with 100 μl medium in 96-well plates (Greiner #655948 Poly-D-lysine coated). In order to induce the TRPM8 receptor the growth medium tetracycline is mixed in (DMEM/HG, 10% FCS tetracycline-free, 4 mM L-glutamine, 15 μg/ml blasticidin, 100 μg/ml hygromycin B, 1 μg/ml tetracycline). The next day the cells are charged with Fluo-4Am dye and the test is performed. The procedure is as follows: Addition of 100 μl/well of dye solution Ca-4 Kit (RB 141, Molecular Devices) per 100 μl of medium (DMEM/HG, 10% FCS tetracycline-free, 4 mM L-glutamine, 15 μg/ml blasticidin, 100 μg/ml hygromycin B, 1 μg/ml tetracycline). Incubation in the incubator for 30 minutes/37° C./5% CO2, 30 minutes/RT. […]

Sequence of Transient receptor potential cation channel subfamily M member 8 (Q7Z2W7 whole entry): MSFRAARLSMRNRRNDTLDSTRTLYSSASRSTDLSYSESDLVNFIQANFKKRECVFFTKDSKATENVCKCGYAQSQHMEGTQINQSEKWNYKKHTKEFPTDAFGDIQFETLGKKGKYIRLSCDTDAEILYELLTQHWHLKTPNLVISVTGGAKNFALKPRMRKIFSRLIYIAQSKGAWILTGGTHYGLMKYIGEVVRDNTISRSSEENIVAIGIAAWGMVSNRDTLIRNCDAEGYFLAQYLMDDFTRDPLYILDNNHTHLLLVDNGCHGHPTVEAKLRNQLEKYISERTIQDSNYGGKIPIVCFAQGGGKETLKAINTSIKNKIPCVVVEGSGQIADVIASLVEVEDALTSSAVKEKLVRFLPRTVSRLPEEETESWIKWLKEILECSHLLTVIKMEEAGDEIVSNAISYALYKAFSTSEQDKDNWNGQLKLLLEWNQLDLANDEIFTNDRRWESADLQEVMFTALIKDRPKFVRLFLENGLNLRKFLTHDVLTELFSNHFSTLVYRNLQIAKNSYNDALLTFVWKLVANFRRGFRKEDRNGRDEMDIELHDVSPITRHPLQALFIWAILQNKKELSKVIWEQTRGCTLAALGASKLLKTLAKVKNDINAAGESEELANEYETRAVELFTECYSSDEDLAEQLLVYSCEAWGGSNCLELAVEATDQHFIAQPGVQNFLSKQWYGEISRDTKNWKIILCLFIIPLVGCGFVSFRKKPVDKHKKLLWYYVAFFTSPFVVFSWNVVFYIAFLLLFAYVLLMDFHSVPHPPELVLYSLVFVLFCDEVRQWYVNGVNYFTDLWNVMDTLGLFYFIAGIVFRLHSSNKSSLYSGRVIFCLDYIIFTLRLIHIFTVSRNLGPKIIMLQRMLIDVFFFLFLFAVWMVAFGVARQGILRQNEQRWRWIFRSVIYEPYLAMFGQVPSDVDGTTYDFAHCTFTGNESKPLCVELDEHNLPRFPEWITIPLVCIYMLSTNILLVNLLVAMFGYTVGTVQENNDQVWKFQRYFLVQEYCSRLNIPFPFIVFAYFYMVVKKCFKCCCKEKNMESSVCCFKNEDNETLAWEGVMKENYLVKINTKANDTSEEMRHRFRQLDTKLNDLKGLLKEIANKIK

Compound	EC50 [µM]
COc1cnc(-c2ccccn2)nc1NC(C)C(C)C (configuration not stated)	0.5
COc1cnc(-c2ccccn2)nc1OC(C)C	3.2
